In brackets after ≈: the same amount, converted by molar mass.
How the values were obtained:
Solubility at pH 6.8 = format: physicochemical; details: pH 6.8, aqueous buffer, thermodynamic from solid; read-out: solubility
Summary of the method: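 Following the procedure of Zhou et al. (2007), compound solubility was determined at pH 6.8.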

[1] = system: PKB Ser473 phosphorylation in Rat1-myr-HA-p110 delta cells; assay: Reverse protein array assay, PKB Ser473 phosphorylation in Rat1-myr-p110 delta cells; format: cell-based; details: read-out: p-PKB IC50
Summary of the method: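 After at least 20 h of culture, the p110 isoform-transfected Rat1 lines receive compound in an 8-step dilution series, keeping DMSO at 0.2%, for 30 minutes. Cells are then lysed and lysates arrayed on chips for fluorescence detection of Ser473-phosphorylated PKB.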

[2] = system: S6 Ribosomal Protein phosphorylation Ser235/236 in TSC1 null mouse embryo fibroblast (MEF) cells; assay: Reverse protein array assay, S6 Ribosomal Protein phosphorylation Ser235/236 in TSC1 null MEF cells; format: cell-based; details: 1 h, pS6 ribosomal protein Ser235/236, 60 minutes incubation, read-out: p-S6 IC50
Summary of the method: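 TSC1−/− MEFs, seeded and held ≥20 h at 37 °C/5% CO2, were exposed to 8-step serial compound dilutions (0.02% DMSO final; DMSO vehicle control) for 60 min at 37 °C. Cells were then lysed on ice for 10 min and lysates spotted onto reverse protein array chips.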

Row | Compound | solubility (Solubility at pH 6.8) [µg/mL] | IC50 [1] [nM] | IC50 [2] [nM]
1 | COc1ccc(-c2ccc3ncc4c(c3c2)n(-c2c(C)nn(C)c2C)c(=O)n4C)cn1 [Example 2.4, 8-(6-Methoxy-pyridin-3-yl)-3-methyl-1-(1,3,5-trimethyl-1H-pyrazol-4-yl)-1,3-dihydro-imidazo[4,5-c]quinolin-2-one] | 50 (≈ 121 µM) | 882 | 
2 | CCOc1ccc(-c2ccc3ncc4c(c3c2)n(-c2cn(C)nc2C)c(=O)n4C)cn1 [Example 3.1, 1-(1,3-Dimethyl-1H-pyrazol-4-yl)-8-(6-ethoxy-pyridin-3-yl)-3-methyl-1,3-dihydro-imidazo[4,5-c]quinolin-2-one] | 15 (≈ 36.2 µM) | 42 | 40
3 | CCOc1ccc(-c2ccc3ncc4c(c3c2)n(-c2cn(CC(=O)N3CCOCC3)nc2C)c(=O)n4C)cn1 [Example 3.10, 8-(6-Ethoxy-pyridin-3-yl)-3-methyl-1-[3-methyl-1-(2-morpholin-4-yl-2-oxo-ethyl)-1H-pyrazol-4-yl]-1,3-dihydro-imidazo[4,5-c]quinolin-2-one] | 26 (≈ 49.3 µM) | 84 | 10
4 | CCOc1ccc(-c2ccc3ncc4c(c3c2)n(-c2c(C)nn(CC(=O)N(C)C)c2C)c(=O)n4C)cn1 [Example 3.12, 2-{4-[8-(6-Ethoxy-pyridin-3-yl)-3-methyl-2-oxo-2,3-dihydro-imidazo[4,5-c]quinolin-1-yl]-3,5-dimethyl-pyrazol-1-yl}-N,N-dimethyl-acetamide] | > 500 | 211 | 175
5 | CCn1cc(-n2c(=O)n(C)c3cnc4ccc(-c5ccc(N(C)C)nc5)cc4c32)c(C)n1 [Example 4.2, 8-(6-Dimethylamino-pyridin-3-yl)-1-(1-ethyl-3-methyl-1H-pyrazol-4-yl)-3-methyl-1,3-dihydro-imidazo[4,5-c]quinolin-2-one] | 7 (≈ 16.4 µM) | 44 | 7
6 | Cc1nn(C)c(C)c1-n1c(=O)n(C)c2cnc3ccc(-c4ccc(N(C)C)nc4)cc3c21 [Example 4.3, 8-(6-Dimethylamino-pyridin-3-yl)-3-methyl-1-(1,3,5-trimethyl-1H-pyrazol-4-yl)-1,3-dihydro-imidazo[4,5-c]quinolin-2-one] | 71 (≈ 166 µM) | 787 | 
7 | Cc1nn(C(C)C)cc1-n1c(=O)n(C)c2cnc3ccc(-c4ccc(N5CCC5)nc4)cc3c21 [Example 5.2, 8-(6-Azetidin-1-yl-pyridin-3-yl)-1-(1-isopropyl-3-methyl-1H-pyrazol-4-yl)-3-methyl-1,3-dihydro-imidazo[4,5-c]quinolin-2-one] | 7 (≈ 15.4 µM) | 27 | 5
8 | Cc1nn(C)cc1-n1c(=O)n(C)c2cnc3ccc(-c4cnc(N(C)C)nc4)cc3c21 [Example 6.2, 8-(2-Dimethylamino-pyrimidin-5-yl)-1-(1,3-dimethyl-1H-pyrazol-4-yl)-3-methyl-1,3-dihydro-imidazo[4,5-c]quinolin-2-one] | 41 (≈ 98.9 µM) | 76 | 8
9 | Cc1ccc(-c2ccc3ncc4c(c3c2)n(-c2cn(C)nc2C)c(=O)n4C)cn1 [Example 7.2, 1-(1,3-Dimethyl-1H-pyrazol-4-yl)-3-methyl-8-(6-methyl-pyridin-3-yl)-1,3-dihydro-imidazo[4,5-c]quinolin-2-one] | 9 (≈ 23.4 µM) | 28 | 13.5
10 | Cc1cc(-n2c(=O)n(C)c3cnc4ccc(-c5ccc(C(F)(F)F)nc5)cc4c32)n(C)n1 [Example 8.2, 1-(2,5-Dimethyl-2H-pyrazol-3-yl)-3-methyl-8-(6-trifluoromethyl-pyridin-3-yl)-1,3-dihydro-imidazo[4,5-c]quinolin-2-one] | 4 (≈ 9.12 µM) | 412 | 
11 | COc1cncc(-c2ccc3ncc4c(c3c2)n(-c2cn(C)nc2C)c(=O)n4C)c1 [Example 12, 1-(1,3-Dimethyl-1H-pyrazol-4-yl)-8-(5-methoxy-pyridin-3-yl)-3-methyl-1,3-dihydro-imidazo[4,5-c]quinolin-2-one] | 39 (≈ 97.4 µM) | 79 | 7
12 | CNC(=O)c1ccc(-c2ccc3ncc4c(c3c2)n(-c2cn(C)nc2C)c(=O)n4C)cn1 [Example 15.1, 5-[1-(1,3-Dimethyl-1H-pyrazol-4-yl)-3-methyl-2-oxo-2,3-dihydro-1H-imidazo[4,5-c]quinolin-8-yl]-pyridine-2-carboxylic acid methylamide] | 10 (≈ 23.4 µM) | 91 | 11
13 | Cc1nn(C(C)C)cc1-n1c(=O)n(C)c2cnc3ccc(-c4ccc(CO)nc4)cc3c21 [Example 16.3, 8-(6-hydroxymethyl-pyridin-3-yl)-1-(1-isopropyl-3-methyl-1H-pyrazol-4-yl)-3-methyl-1,3-dihydro-imidazo[4,5-c]quinolin-2-one] | > 428 | 125 | 61
14 | CCn1cc(-n2c(=O)n(C)c3cnc4ccc(-c5cnc(OC)nc5)cc4c32)c(C)n1 [Example 17.1, 1-(1-Ethyl-3-methyl-1H-pyrazol-4-yl)-8-(2-methoxy-pyrimidin-5-yl)-3-methyl-1,3-dihydro-imidazo[4,5-c]quinolin-2-one] | 81 (≈ 195 µM) | 103 | 87
15 | COc1ncc(-c2ccc3ncc4c(c3c2)n(-c2cn(C)nc2C)c(=O)n4C)cn1 [Example 17.2, 1-(1,3-Dimethyl-1H-pyrazol-4-yl)-8-(2-methoxy-pyrimidin-5-yl)-3-methyl-1,3-dihydro-imidazo[4,5-c]quinolin-2-one] | 32 (≈ 79.7 µM) | 58 | 33
16 | COc1ncc(-c2ccc3ncc4c(c3c2)n(-c2cn(C)nc2Cl)c(=O)n4C)cn1 [Example 17.3, 1-(3-Chloro-1-methyl-1H-pyrazol-4-yl)-8-(2-methoxy-pyrimidin-5-yl)-3-methyl-1,3-dihydro-imidazo[4,5-c]quinolin-2-one] | 4 (≈ 9.48 µM) | 28 | 3
17 | Cc1nn(C)cc1-n1c(=O)n(C)c2cnc3ccc(-c4ccc(N)nc4)cc3c21 [Example 23.1, 8-(6-Amino-pyridin-3-yl)-1-(1,3-dimethyl-1H-pyrazol-4-yl)-3-methyl-1,3-dihydro-imidazo[4,5-c]quinolin-2-one] | 16 (≈ 41.5 µM) | 26 | 4
18 | Cc1nn(C(C)C)cc1-n1c(=O)n(C)c2cnc3ccc(-c4ccc(N)nc4)cc3c21 [Example 23.2, 8-(6-Amino-pyridin-3-yl)-1-(1-isopropyl-3-methyl-1H-pyrazol-4-yl)-3-methyl-1,3-dihydro-imidazo[4,5-c]quinolin-2-one] | 45 (≈ 109 µM) | 18 | 2
19 | CCOc1ccc(-c2ccc3ncc4c(c3c2)n(-c2c(C)nn(C)c2C)c(=O)n4C)cc1OC [Example 29.2, 8-(4-Ethoxy-3-methoxy-phenyl)-3-methyl-1-(1,3,5-trimethyl-1H-pyrazol-4-yl)-1,3-dihydro-midazo[4,5-c]quinolin-2-one] | 7 (≈ 15.3 µM) | 234 | 
20 | COCCOc1ccc(-c2ccc3ncc4c(c3c2)n(-c2cn(C)nc2C)c(=O)n4C)cc1OC [Example 30.1, 1-(1,3-Dimethyl-1H-pyrazol-4-yl)-8-[3-methoxy-4-(2-methoxy-ethoxy)-phenyl]-3-methyl-1,3-dihydro-imidazo[4,5-c]quinolin-2-one] | 4 (≈ 8.45 µM) | 91 | 14
21 | Cc1nn(C)c(C)c1-n1c(=O)n(C)c2cnc3ccc(-c4cccc(O)c4)cc3c21 [Example 32.2, 8-(3-Hydroxy-phenyl)-3-methyl-1-(1,3,5-trimethyl-1H-pyrazol-4-yl)-1,3-dihydro-imidazo[4,5-c]quinolin-2-one] | 194 (≈ 486 µM) | 366 | 558
22 | CNC(=O)c1ccc(-c2ccc3ncc4c(c3c2)n(-c2cn(C)nc2C)c(=O)n4C)cc1 [Example 43.1, 4-[1-(1,3-Dimethyl-1H-pyrazol-4-yl)-3-methyl-2-oxo-2,3-dihydro-1H-imidazo[4,5-c]quinolin-8-yl]-N-methyl-benzamide] | 19 (≈ 44.6 µM) | 46 | 3
23 | CCOc1cncc(-c2ccc3ncc4c(c3c2)n(-c2c(C)cnn2C)c(=O)n4C)c1 [Example 56.5, 1-(2,4-Dimethyl-2H-pyrazol-3-yl)-8-(5-ethoxy-pyridin-3-yl)-3-methyl-1,3-dihydro-imidazo[4,5-c]quinolin-2-one] | 16 (≈ 38.6 µM) |  | 130
24 | COCCn1c(=O)n(C)c2ncc(-c3ccc4ncc5c(c4c3)n(-c3cn(C)nc3C)c(=O)n5C)cc21 [Example 69, 1-(1,3-Dimethyl-1H-pyrazol-4-yl)-8-[1-(2-methoxy-ethyl)-3-methyl-2-oxo-2,3-dihydro-1H-imidazo[4,5-b]pyridin-6-yl]-3-methyl-1,3-dihydro-imidazo[4,5-c]quinolin-2-one] | 3 (≈ 6.02 µM) | 810 | 
25 | CCc1ncc(-c2ccc3ncc4c(c3c2)n(-c2cn(C)nc2C)c(=O)n4C)cc1NC(C)C [Example 162, 1-(1,3-Dimethyl-1H-pyrazol-4-yl)-8-(6-ethyl-5-isopropylamino-pyridin-3-yl)-3-methyl-1,3-dihydro-imidazo[4,5-c]quinolin-2-one] | > 456 |  | 
26 | Cc1nn(CCO)cc1-n1c(=O)n(C)c2cnc3ccc(-c4cncc(N5CCOCC5)c4)cc3c21 [Example 175.3, 1-[1-(2-Hydroxy-ethyl)-3-methyl-1H-pyrazol-4-yl]-3-methyl-8-(5-morpholin-4-yl-pyridin-3-yl)-1,3-dihydro-imidazo[4,5-c]quinolin-2-one] | > 486 |  | 151
